According to patent US7314744B2, “Hyperthermostable protease gene” (Takara Bio Inc., priority 1995, dated 2008):
Square brackets hold non-standard residues; d marks the D form. Peptide text beside a SMILES is read from it. * marks the point of attachment. Sta = CC(C)C[C@H](N)[C@@H](O)CC(=O)O; Isovaleryl = CC(C)CC(=O)*

Tests used:
[1] = system: enzyme preparation NAPS-1 (protease PFUS); assay: Effects of various reagents on enzyme preparation NAPS-1; format: biochemical, Pyrococcus furiosus; conditions: for effect of reagent on activity of NAPS-1, in words: 37° C., 30 minutes, 1 mM reagent; for enzyme activity of NAPS-1 after treatment with reagent, compared with control (no reagent): treated at 37° C. for 30 minutes, reagent final concentration 1 mM, control 100%
Description: (§1) In addition, the enzyme activity of the enzyme preparations NP-1, PT-1, NAPS-1 and NAPS-LS can be photometrically measured using Suc-Ala-Ala-Pro-Phe-p-NA (SEQ ID NO:44) (manufactured by Sigma) as a substrate. That is, an enzyme preparation to be detected for the enzyme activity was appropriately diluted, to 50 μl of the solution was added 50 μl of a 0.1M potassium phosphate buffer (pH 7.0) containing Suc-Ala-Ala-Pro-Phe-p-NA (SEQ ID NO:44) (Suc-Ala-Ala-Pro-Phe-p-NA(SEQ ID NO:44) solution), followed by incubating at 95° C. for 30 minutes. After the reaction was stopped by ice-cooling, the absorbance at 405 nm was measured to quantitate an amount of the generated p-nitroaniline, and the resulting value was compared with that when incubating without the addition of the enzyme preparation, to investigate the enzyme activity. Upon this, a 0.2 mM solution of Suc-Ala-Ala-Pro-Phe-p-NA (SEQ ID NO:44) was used for the enzyme preparations NP-1 and PT-1 and a 1 mM solution was used for the enzyme preparations NAPS-1 and NAPS-1S.
(§2) The effects of various reagents on the enzyme preparations TCES and NAPS-1 obtained by the present invention were investigated. That is, the above enzyme preparations were treated at 37° C. for 30 minutes in the presence of the various reagents at the final concentration of 1 mM, and an aliquot thereof was taken to determine the enzyme activity by the method described in the above (2) to compare with that (control) when no reagent was added.

[2] = system: enzyme preparation TCES (protease TCES); assay: Effects of various reagents on enzyme preparation TCES; format: biochemical, Thermococcus celer; conditions: for effect of reagent on activity of TCES, in words: 37° C., 30 minutes, 1 mM reagent; for enzyme activity of TCES after treatment with reagent, compared with control (no reagent): treated at 37° C. for 30 minutes, reagent final concentration 1 mM, control 100%
Description: (§3) The enzyme activity of the enzyme preparation TC-3 obtained in the present invention can be measured using as a substrate Suc-Leu-Leu-Val-Tyr-MCA (SEQ ID NO:43) (manufactured by Peptide Laboratory). That is, the enzyme preparation to be detected for the enzyme activity is appropriately diluted, to 20 μl of the solution is added 80 μl of a 0.1M sodium phosphate buffer (pH 7.0) containing 62.5 μM Suc-Leu-Leu-Val-Tyr-MCA (SEQ ID NO:43), followed by incubating at 75° C. for 30 minutes. After the reaction is stopped by the addition of 20 μl of 30% acetic acid, the fluorescent intensity is measured at the excitation wavelength of 355 nm and the fluorescence wavelength of 460 nm to quantitate an amount of the generated 7-amino-4-methylcoumarin, and the resulting value is compared with that obtained when incubating without the addition of the enzyme preparation, to investigate the enzyme activity.
as §2

[3] = Thermostability of enzyme preparation (residual activity after heat-treatment); format: physicochemical; conditions: 80° C., 20 mM Tris-HCl pH 7.5, 3 hours
Description: The thermostability of the enzyme preparation TC-3 obtained by the present invention was investigated. That is, the enzyme preparation was incubated at 80° C. in 20 mM Tris-HCl, pH 7.5 for various periods of time, an appropriate amount thereof was taken to measure the enzyme activity by the method shown in the above (2), and the activity was compared with that when not heat-treated.
In addition, the thermostability of the enzyme preparation NP-1 obtained in the present invention was investigated. That is, the enzyme preparation was incubated at 95° C. in 20 mM Tris-HCl, pH 7.5 for various periods of time, an appropriate aliquot was taken to determine the enzyme activity by the method shown in the above (2), and the enzyme activity was compared with that when not heat-treated. […] This is considered to be because a protease produced as a precursor causes the self-catalytic activation during the heat-treatment.
In addition, the above enzyme preparation NP-1 activated by the heat-treatment was investigated for the thermostability. That is, the enzyme preparation NP-1 was activated by the heat-treatment at 95° C. for 30 minutes, incubated at 95° C. for various periods of time, and the activity was determined as described above to compare with that when not heat-treated. […]

gelatin = assay: Gelatin degradation on gelatin-containing SDS-polyacrylamide gel; format: biochemical; conditions: gel with 0.05% gelatin, pH 7.0, 95° C., 3 hours
Text: The activity of the enzyme preparations obtained in the present invention on the synthetic peptide substrates is confirmed by a method for measuring the enzyme activity described in the above (2). That is, the enzyme preparation TC-3 obtained in the present invention has the Suc-Leu-Leu-Val-Tyr-MCA (SEQ ID NO:43) hydrlyzing activity, and the enzyme preparations NP-1, PT-1, NAPS-1 and NAPS-1A have the Suc-Ala-Ala-Pro-Phe-p-NA (SEQ ID NO:44) hydrlyzing activity, respectively. […] In addition, the activity of the enzyme preparations obtained in the present invention on gelatin can be detected by confirming the degradation of gelatin by an enzyme on the SDS-polyacrylamide gel. That is, the enzyme preparation to be detected for the enzyme activity was appropriately diluted, to 10 μl of the sample solution was added 2.5 μl of a sample buffer (50 mM Tris-HCl, pH 7.5, 5% SDS, 5% 2-mercaptoethanol, 0.005% Bromophenol Blue. 50% glycerol), followed by treatment at 100° C. for 5 minutes and electrophoresis using 0.1% SDS-10% polyacrylamide gel containing 0.05% gelatin. […] The presence of the protease activity was detected by the fact that gelatin is hydrolyzed by a protease into peptides which are diffused out of the gel and, consequently, the relevant portion of the gel was not stained with Coomassie Brilliant Blue.

Suc-Leu-Leu-Val-Tyr-MCA = Suc-Leu-Leu-Val-Tyr-MCA hydrolyzing activity (fluorescence); format: biochemical; conditions: pH 7.0 and 75° C., 30 minutes
Description: as §3
(§4) The activity of the enzyme preparations obtained in the present invention on the synthetic peptide substrates is confirmed by a method for measuring the enzyme activity described in the above (2). […] In addition, the activity of the enzyme preparations obtained in the present invention on gelatin can be detected by confirming the degradation of gelatin by an enzyme on the SDS-polyacrylamide gel. […]

casein = assay: Casein degradation on casein-containing SDS-polyacrylamide gel; format: biochemical; conditions: gel with 0.05% casein, 95° C.
Suc-Ala-Ala-Pro-Phe-p-NA = Suc-Ala-Ala-Pro-Phe-p-NA hydrolyzing activity (absorbance at 405 nm); format: biochemical; conditions: pH 7.0 and 95° C., 30 minutes
Description: as §1, with “Upon this, a 0.2 mM solution of Suc-Ala-Ala-Pro-Phe-p-NA (SEQ ID NO:44) was used for the enzyme preparations NP-1 and PT-1 and a 1 mM solution was used for the enzyme preparations NAPS-1 and NAPS-1S.” left out
as §4

Molecule	effect of reagent on activity of NAPS-1, in words [1]	enzyme activity of NAPS-1 after treatment with reagent, compared with control (no reagent) [1] [%]	enzyme activity of TCES after treatment with reagent, compared with control (no reagent) [2] [%]	further results
CC(C)C[C@H](NC(=O)[C@@H](NC(=O)N[C@@H](Cc1ccccc1)C(=O)O)[C@@H]1CCN=C(N)N1)C(=O)N[C@H](C=O)Cc1ccccc1 [Chymostatin]	remarkably decreased activity	6.6	0	effect of reagent on activity of TCES, in words [2]: remarkably decreased activity
O=C(O)CN(CCN(CC(=O)O)CC(=O)O)CC(=O)O [EDTA]	the decrease in the activity was observed	36.1	103.5	–
CC(=O)N[C@@H](CC(C)C)C(=O)N[C@@H](CC(C)C)C(=O)N[C@H](C=O)CCCNC(=N)N [Leupeptin]	–	89.3	104.5	–
CCN1C(=O)C=CC1=O [N-ethylmaleimide]	–	102.6	82.6	–
O=S(=O)(F)Cc1ccccc1 [PMSF, phenylmethanesulfonyl fluoride]	remarkably decreased activity	0.1	8.1	effect of reagent on activity of TCES, in words [2]: remarkably decreased activity
CC(C)CC(=O)N[C@H](C(=O)N[C@H](C(=O)N[C@@H](CC(C)C)[C@@H](O)CC(=O)N[C@@H](C)C(=O)N[C@@H](CC(C)C)[C@@H](O)CC(=O)O)C(C)C)C(C)C [Pepstatin] (Isovaleryl-VV[Sta]A[Sta]-OH)	–	100.7	105.2	–
TC-3: crude enzyme preparation of protease TCES (Thermococcus celer) obtained from Bacillus subtilis DB104/pSTC3 (protein) MKRLGAVVLALVLVGLLAGTALAAPVKPVVRNNAVQQKNYGLLTPGLFKKVQRMNWNQEVDTVIMFGSYGDRDRAVKVLRLMGAQVKYSYKIIPAVAVKIKARDLLLIAGMIDTGYFGNTRVSGIKFIQEDYKVQVDDATSVSQIGADTVWNSLGYDGSGVVVAIVDTGIDANHPDLKGKVIGWYDAVNGRSTPYDDQGHGTHVAGIVAGTGSVNSQYIGVAPGAKLVGVKVLGADGSGSVSTIIAGVDWVVQNKDKYGIRVINLSLGSSQSSDGTDSLSQAVNNAWDAGIVVCVAAGNSGPNTYTVGSPAAASKVITVGAVDSNDNIASFSSRGPTADGRLKPEVVAPGVDIIAPRASGTSMGTPINDYYTKASGTSMATPHVSGVGALILQAHPSWTPDKVKTALIETADIVAPKEIADIAYGAGRVNVYKAIKYDDYAKLTFTGSVADKGSATHTFDVSGATFVTATLYWDTGSSDIDLYLYDPNGNEVDYSYTAYYGFEKVGYYNPTAGTWTVKVVSYKGAANYQVDVVSDGSLSQSGGGNPNPNPNPNPTPTTDTQTFTGSVNDYWDTSDTFTMNVNSGATKITGDLTFDTSYNDLDLYLYDPNGNLVDRSTSSNSYEHVEYANPAPGTWTFLVYAYSTYGWADYQLKAVVYYG	–	–	–	residual activity after heat-treatment [3]: not less than 90%; gelatin hydrolyzing activity (gelatin): had the gelatin hydrolyzing activity; Suc-Leu-Leu-Val-Tyr-MCA hydrolyzing activity (Suc-Leu-Leu-Val-Tyr-MCA): had the Suc-Leu-Leu-Val-Tyr-MCA (SEQ ID NO:43) hydrolyzing activity; casein hydrolyzing activity (gel) (casein): had the casein hydrolyzing activity; Suc-Ala-Ala-Pro-Phe-p-NA hydrolyzing activity (Suc-Ala-Ala-Pro-Phe-p-NA): the activity to degrade the substrate was recognized
